Results: patent US20100234238A1, “METHOD FOR PROFILING KINASE INHIBITORS” (Janssen Pharmaceutica N V, priority 2006, published 2010)

Test system: tyrosine kinase activity in lysates prepared from cell lines
Assay: PAMCHIP96 tyrosine peptide array profiling of lysates of 27 cell lines in absence or presence of MTKI
Assay type: biochemical
Settings: 5 μM
Description: PAMGENE technology using the tyrosine peptide PAMCHIP96 allows the kinetic detection of the phosphorylation of 144 tyrosine peptides spotted onto a 3-dimensional porous well of a 96-well plate (www.pamgene.com). This technology can be used to measure the activity of purified kinases and the effects of kinase inhibitors thereon. Phosphotyrosine peptides are detected using a mix of fluorescently labeled anti-phosphotyrosine antibodies. Phosphorylation of peptides can be followed in real time due to the possibility of removing the reaction mix for a few seconds during the assay by a pumping mechanism to allow CCD camera detection of phosphopeptides bound to the fluorescent antibody. These consecutive datapoints (quantified spot images) generate a kinetic curve for each individual peptide, and allow for the calculation of initial velocities and endpoints associated with each individual peptide.
Cells cultured in appropriate medium in T175 flasks, treated with compound if necessary, are harvested at 70-90% confluency.
Media is removed, cells are washed with 10 ml ice cold PBS containing 0.1 mM NaVO4 and lysed in 1 ml of M-PER buffer (PIERCE) containing phosphatase and protease inhibitors (HALT, PIERCE). Cells are collected by scraping, and centrifuged for 10 minutes at 12 000×g. Supernatant lysates are filtered through a 0.2 micrometer filter (Anotop 0.2 μm anopore filter; Whatmann). Lysates are flash frozen in liquid nitrogen and stored at −80C.
Just prior to the PAMCHIP experiment, total protein content is quantitated in the lysates and lysates are diluted to 1 mg/ml in a total volume of 200 μl, with M-PER phosphatase and protease inhibitors (HALT, PIERCE). 10 μg of total lysate (corresponding to 10 μl) will be used per well on the PAMCHIP96.
To all 200 μl lysates 10 units of benzonase (Novagen) is added and lysates are further incubated for 30 min on ice and next centrifuged for 10 minutes at 12 000×g. The supernatant is then 1:1 diluted with compound or DMSO diluted to the appropriate concentration in water, and lysates are further incubated exactly 60 min on ice. Meanwhile, a PAMCHIP96 tyrosine peptide chip (PAMGENE) is blocked with 2% BSA (filtered through a 0.2 μm anopore filter; Whatmann) using the standard setting of a PAMSTATION96 (PAMGENE).
The composition of the kinase buffer is as follows: 1×ABL buffer (NEB), 0.5 mg/ml BSA (from 10 mg/ml NEB stock), 100 μM ATP (dissolved and diluted in 1×ABL buffer), 5 μg/ml PY20-FITC (ExAlpha Biologicals, azide-free preparation). A twofold concentrated kinase buffer is prepared chilled on ice, DMSO or compound is added as appropriate, and the solution is added 1:1 to the (compound treated) ice cold lysates, and immediately applied to a tyrosine peptide PAMCHIP96. The assay is run on a PAMSTATION96 according to standard procedures: after loading of the plate, solution is pumped once onto the wells, a first exposure is read (150 mSec) and then a kinetic reading program (reading every 5 min for 150 mSec) is run for 60 min. Lysates are run in 6 technical replicates for each condition; replicates are always applied horizontally next to each other to avoid vertical strip effects of the chip.
The data (spot images) are further quantified and linked to the peptide identities using EVOLVE PAMGRID software (PAMGENE). The quantified data are then fit to a curve using CurveFitHT software (PAMGENE) using the Vinip2 curve fitting algorithm, applied on the first 30 min of the assay; the initial velocity is derived at the first kinetic time point read. All subsequent data analyses were done on initial velocities (Vini) using the software packages Omniviz and R (Ihaka, R. and Gentlemen, R. (1996) R: a language for data analysis and graphics. J. Comput. Graph. Stat., 5, 299-314).
After replacing the Vini's lower than 0.1 by 0.1, all Vini's were log 2-transformed to approach normality.

SMILES: COc1cc2ncnc3c2cc1OCCCCCN(C)Cc1ccc(Br)cc1N3 [MTKI, 4,6-ethanediylidenepyrimido[4,5-b][6,1,12]benzoxadiazacyclopentadecine, 17-bromo-8,9,10,11,12,13,14,19-octahydro-20-methoxy-13-methyl-]
- ratio of initial velocity of peptide phosphorylation (H3255 lysate, PECA1_706_718_Y713): 0.68
- ratio of initial velocity of peptide phosphorylation (H3255 lysate, PGFRB_768_780_Y771/Y775/Y778): 0.12
- ratio of initial velocity of peptide phosphorylation (H3255 lysate, PLCG1_764_776_Y771): 0.97
- ratio of initial velocity of peptide phosphorylation (H3255 lysate, PRRX2_202_214_Y214): 0.67
- ratio of initial velocity of peptide phosphorylation (H3255 lysate, RASA1_453_465_Y460): 0.65
- ratio of initial velocity of peptide phosphorylation (H3255 lysate, STAT2_683_695_Y690): 0.72
- ratio of initial velocity of peptide phosphorylation (H3255 lysate, SYN1_2_14_S9): 0.70
- ratio of initial velocity of peptide phosphorylation (H3255 lysate, TYRO3_679_691_Y686): 0.47
- ratio of initial velocity of peptide phosphorylation (NCI-N87 lysate, CDK7_157_169_S164): 0.82
- ratio of initial velocity of peptide phosphorylation (NCI-N87 lysate, CREB1_122_134_Y134/S133): 0.82
- ratio of initial velocity of peptide phosphorylation (NCI-N87 lysate, DDR2_733_745_Y740): 0.95
- ratio of initial velocity of peptide phosphorylation (NCI-N87 lysate, ENOG_37_49_Y43): 0.91
- ratio of initial velocity of peptide phosphorylation (NCI-N87 lysate, MK10_216_228_T221/Y223): 0.73
- ratio of initial velocity of peptide phosphorylation (NCI-N87 lysate, NCF1_313_325_S315/S320): 0.89
- ratio of initial velocity of peptide phosphorylation (NCI-N87 lysate, NPT2_501_513_T508): 0.88
- ratio of initial velocity of peptide phosphorylation (NCI-N87 lysate, PECA1_706_718_Y713): 0.82
- ratio of initial velocity of peptide phosphorylation (NCI-N87 lysate, PGFRB_768_780_Y771/Y775/Y778): 0.32
- ratio of initial velocity of peptide phosphorylation (NCI-N87 lysate, PLCG1_764_776_Y771): 0.78
- ratio of initial velocity of peptide phosphorylation (NCI-N87 lysate, PRRX2_202_214_Y214): 0.82
- ratio of initial velocity of peptide phosphorylation (NCI-N87 lysate, RASA1_453_465_Y460): 0.59
- ratio of initial velocity of peptide phosphorylation (NCI-N87 lysate, STAT2_683_695_Y690): 0.83
- ratio of initial velocity of peptide phosphorylation (NCI-N87 lysate, SYN1_2_14_S9): 0.75
- ratio of initial velocity of peptide phosphorylation (NCI-N87 lysate, TYRO3_679_691_Y686): 0.85
- ratio of initial velocity of peptide phosphorylation (SKBR3 lysate, CDK7_157_169_S164): 0.97
- ratio of initial velocity of peptide phosphorylation (SKBR3 lysate, CREB1_122_134_Y134/S133): 0.99
- ratio of initial velocity of peptide phosphorylation (SKBR3 lysate, DDR2_733_745_Y740): 0.93
- ratio of initial velocity of peptide phosphorylation (SKBR3 lysate, MK10_216_228_T221/Y223): 0.68
- ratio of initial velocity of peptide phosphorylation (SKBR3 lysate, NCF1_313_325_S315/S320): 0.94
- ratio of initial velocity of peptide phosphorylation (SKBR3 lysate, NPT2_501_513_T508): 0.77
- ratio of initial velocity of peptide phosphorylation (SKBR3 lysate, PECA1_706_718_Y713): 0.68
- ratio of initial velocity of peptide phosphorylation (SKBR3 lysate, PLCG1_764_776_Y771): 0.75
- ratio of initial velocity of peptide phosphorylation (SKBR3 lysate, PRRX2_202_214_Y214): 0.75
- ratio of initial velocity of peptide phosphorylation (SKBR3 lysate, RASA1_453_465_Y460): 0.88
- ratio of initial velocity of peptide phosphorylation (SKBR3 lysate, STAT2_683_695_Y690): 0.81
- ratio of initial velocity of peptide phosphorylation (SKBR3 lysate, SYN1_2_14_S9): 1.03
- ratio of initial velocity of peptide phosphorylation (SKBR3 lysate, TYRO3_679_691_Y686): 0.90
- ratio of initial velocity of peptide phosphorylation (SNU484 lysate, CDK7_157_169_S164): 0.67
- ratio of initial velocity of peptide phosphorylation (SNU484 lysate, CREB1_122_134_Y134/S133): 0.70
- ratio of initial velocity of peptide phosphorylation (SNU484 lysate, DDR2_733_745_Y740): 0.75
- ratio of initial velocity of peptide phosphorylation (SNU484 lysate, ENOG_37_49_Y43): 0.68
- ratio of initial velocity of peptide phosphorylation (SNU484 lysate, MK10_216_228_T221/Y223): 0.72
- ratio of initial velocity of peptide phosphorylation (SNU484 lysate, NCF1_313_325_S315/S320): 0.80
- ratio of initial velocity of peptide phosphorylation (SNU484 lysate, NPT2_501_513_T508): 0.85
- ratio of initial velocity of peptide phosphorylation (SNU484 lysate, PECA1_706_718_Y713): 0.64
- ratio of initial velocity of peptide phosphorylation (SNU484 lysate, PLCG1_764_776_Y771): 0.70
- ratio of initial velocity of peptide phosphorylation (SNU484 lysate, PRRX2_202_214_Y214): 0.67
- ratio of initial velocity of peptide phosphorylation (SNU484 lysate, RASA1_453_465_Y460): 0.58
- ratio of initial velocity of peptide phosphorylation (SNU484 lysate, STAT2_683_695_Y690): 0.73
- ratio of initial velocity of peptide phosphorylation (SNU484 lysate, SYN1_2_14_S9): 0.67
- ratio of initial velocity of peptide phosphorylation (SNU484 lysate, TYRO3_679_691_Y686): 0.85
